According to patent US10668047B2, “Aziridine containing DNA alkylating agents” (priority 2015, dated 2020):
Where two headings read alike, the source gives them in different places.

System: H460 non-cell lung cancer human tumor cell line
Test: In vitro human tumor cell line cytotoxicity (proliferation) assay, AlamarBlue
Type: cell-based
Description: IC50 values are reported in micromolar and result from exposure of compound at various concentrations for 2 hrs followed by a wash step and addition of fresh media followed by growth and cell viability staining and comparison to a media only treated control.
Specifically, exponentially growing cells are seeded at a density of 4×10^3 cells per well in a 96 well plate and incubated at 37° C. in 5% CO2, 95% air and 100% relative humidity for 24 hours prior to addition of test compounds. Compounds are solubilized in 100% DMSO at 200 times the desired final test concentration. At the time of drug addition, compounds are further diluted to 4 times the desired final concentration with complete medium. Aliquots of 50 μl of compound at specified concentrations are added to microtiter wells already containing 150 μl of medium, resulting in the final drug concentration reported. After drug addition, the plates are incubated for an additional 2 hours at 37° C., 5% CO2, 95% air, and 100% relative humidity, then the drug is washed off and fresh medium is added and the plates are incubated for addition 70 hrs at 37° C., 5% CO2, 95% air and 100% relative humidity. At the end of this incubation, the viable cells are quantified using the AlamarBlue assay. The drug concentration resulting in growth inhibition of 50% (IC50) is calculated using Prism software (Irvine, Calif.), and the results are listed in the table.

[1] = Homo sapiens, NCI-H460, read-out: IC50 (N2), H460 cells, under nitrogen, 2 hrs exposure, wash, then 70 hrs growth
[2] = Homo sapiens, NCI-H460, read-out: IC50 (air), H460 cells, under air, 2 hrs exposure, wash, then 70 hrs growth
[3] = Homo sapiens, NCI-H460, H460 cells, under air, 2 hrs exposure, wash, then 70 hrs growth, read-out: IC50 (air)
[4] = Homo sapiens, NCI-H460, H460 cells, under nitrogen, 2 hrs exposure, wash, then 70 hrs growth, read-out: IC50 (N2)
[5] = H460 cells, under air, 2 hrs exposure, wash, then 70 hrs growth, read-out: IC50 (air)
[6] = H460 cells, under nitrogen, 2 hrs exposure, wash, then 70 hrs growth, read-out: IC50 (N2)

Row | Structure (SMILES) | IC50 [3] | IC50 [4] | also measured
1 | Cn1c([N+](=O)[O-])cnc1C(OP(=O)(NCCBr)NCCBr)C1CC1 (centres unmarked) [compound 2519] |  |  | IC50 [1]: > 500000 nM; IC50 [2]: > 500000 nM
2 | CC(OP(=O)(N1CC1)N1CC1)c1ccc([N+](=O)[O-])c(N2CCCC2)c1 (centres unmarked) [compound 2708] | 20000 nM | 3000 nM | 
3 | CC(=O)OCC(OP(=O)(N1CC1)N1CC1)c1ccc([N+](=O)[O-])cc1 (centres unmarked) [compound 2686] | 79000 nM | 3100 nM | 
4 | CC(OP(=O)(N1CC1)N1CC1)c1ccc([N+](=O)[O-])c(N2CCN(C)CC2)c1 (centres unmarked) [compound 2702] | 47000 nM | 800 nM | 
5 | CC(OP(=O)(N1CC1)N1CC1)c1ccc([N+](=O)[O-])c2ccccc12 (centres unmarked) [compound 2824] | 1700 nM | 20 nM | 
6 | CC(OP(=O)(N1CC1)N1CC1)c1cc(-n2cnc([N+](=O)[O-])c2)c([N+](=O)[O-])cc1F (centres unmarked) [compound 2742] |  |  | IC50 [1]: 100 nM; IC50 [2]: 3000 nM
7 | CC(OP(=O)(N1CC1)N1CC1)c1ccc([N+](=O)[O-])c(Nc2ccc([N+](=O)[O-])cc2)c1 (centres unmarked) [compound 2697] |  |  | IC50 [1]: 500 nM; IC50 [2]: 1500 nM
8 | CC(OP(=O)(N1CC1)N1CC1)c1ccc([N+](=O)[O-])c(-n2ccnc2Br)c1 (centres unmarked) [compound 2807] | 13000 nM | 30 nM | 
9 | C=Cc1nc([N+](=O)[O-])n(C)c1COP(=O)(N1CC1)N1CC1 [compound 2129] | 700 nM | 80 nM | 
10 | Cn1c([N+](=O)[O-])nc(CCN2CCOCC2)c1C(OP(=O)(N1CC1)N1CC1)C(F)(F)F (centres unmarked) [compound 2147] | 310000 nM | 1100 nM | 
11 | COc1cc([N+](=O)[O-])ccc1C(C)OP(=O)(N1CC1)N1CC1 (centres unmarked) [compound 2600] | 2800 nM | 50 nM | 
12 | Cn1c([N+](=O)[O-])cnc1C(Cc1ccccc1)OP(=O)(N1CC1)N1CC1 (centres unmarked) [compound 2591] | 19000 nM | 100 nM | 
13 | CC(OP(=O)(N1CC1)N1CC1)c1ccc([N+](=O)[O-])c(NC2CC2)c1 (centres unmarked) [compound 2687] | 15000 nM | 2200 nM | 
14 | CC(C)C(OP(=O)(N1CC1)N1CC1)c1ncc([N+](=O)[O-])n1C (centres unmarked) [compound 2518] | 420000 nM | 600 nM | 
15 | O=[N+]([O-])c1ccc(COP(=O)(N2CC2)N2CC2)cc1 [compound 2550] | 29000 nM | 1800 nM | 
16 | CC(OP(=O)(N1CC1)N1CC1)c1ccc([N+](=O)[O-])c(-c2cn(-c3ccc(F)cc3)nn2)c1 (centres unmarked) [compound 2806] | 5400 nM | 300 nM | 
17 | CC(OP(=O)(N1CC1)N1CC1)c1ccc([N+](=O)[O-])c(-c2ccccc2C(F)(F)F)c1 (centres unmarked) [compound 2799] | 37000 nM | 2300 nM | 
18 | Cn1c([N+](=O)[O-])cnc1C(OP(=O)(N1CC1)N1CC1)c1ccccc1 (centres unmarked) [compound 2542] | 3400 nM | 1500 nM | 
19 | CC(OP(=O)(N1CC1)N1CC1)c1ccc([N+](=O)[O-])c(-c2ccccc2F)c1 (centres unmarked) [compound 2786] | 69000 nM | 2500 nM | 
20 | COCCN(CCOC)c1cc(C(C)OP(=O)(N2CC2)N2CC2)ccc1[N+](=O)[O-] (centres unmarked) [compound 2753] | 19000 nM | 3200 nM | 

Row | Structure (SMILES) | IC50 [3] | IC50 [4] | also measured
21 | CC(OP(=O)(N1CC1)N1CC1)c1cc(-n2cncn2)c([N+](=O)[O-])cc1F (centres unmarked) [compound 2733] | 2800 nM | 30 nM | 
22 | COc1ccc(C(C)OP(=O)(N2CC2)N2CC2)c([N+](=O)[O-])c1 (centres unmarked) [compound 2616] | 17000 nM | 3700 nM | 
23 | CC(OP(=O)(N1CC1)N1CC1)c1ccc([N+](=O)[O-])c(C#N)c1 (centres unmarked) [compound 2710] | 3000 nM | 30 nM | 
24 | CC(OP(=O)(N1CC1)N1CC1)c1ccc([N+](=O)[O-])c(-n2nccn2)c1 (centres unmarked) [compound 2771] | 14000 nM | 30 nM | 
25 | CC(OP(=O)(N1CC1)N1CC1)c1cc(-n2nnc3ccccc32)c([N+](=O)[O-])cc1F (centres unmarked) [compound 2787] | 2300 nM | 20 nM | 
26 | O=[N+]([O-])c1cc(Cl)ccc1COP(=O)(N1CC1)N1CC1 [compound 2592] | 3300 nM | 700 nM | 
27 | CC(OP(=O)(N1CC1)N1CC1)c1ccc([N+](=O)[O-])c(-n2ccnn2)c1 (centres unmarked) [compound 2772] | 26000 nM | 50 nM | 
28 | C=Cc1cc(C(C)OP(=O)(N2CC2)N2CC2)ccc1[N+](=O)[O-] (centres unmarked) [compound 2776] | 2500 nM | 400 nM | 
29 | COc1cc([N+](=O)[O-])ccc1COP(=O)(N1CC1)N1CC1 [compound 2554] | 3000 nM | 100 nM | 
30 | CC(OP(=O)(N1CC1)N1CC1)c1ccc([N+](=O)[O-])c(OCC(F)(F)F)c1 (centres unmarked) [compound 2698] | 3700 nM | 1600 nM | 
31 | CC(OP(=O)(N1CC1)N1CC1)c1ccc([N+](=O)[O-])c(-n2cnc(CO)c2)c1 (centres unmarked) [compound 2746] | 220000 nM | 2600 nM | 
32 | CC(OP(=O)(N1CC1)N1CC1)c1ccc([N+](=O)[O-])c(-n2ncc3ccccc32)c1 (centres unmarked) [compound 2767] | 2300 nM | 200 nM | 
33 | O=[N+]([O-])c1ccc2c(c1)CCCC2OP(=O)(N1CC1)N1CC1 (centres unmarked) [compound 2676] |  |  | IC50 [5]: 3700 nM; IC50 [6]: 100 nM
34 | C=CCC(OP(=O)(N1CC1)N1CC1)c1ncc([N+](=O)[O-])n1C (centres unmarked) [compound 2527] | 39000 nM | 90 nM | 
35 | COc1cccc([N+](=O)[O-])c1COP(=O)(N1CC1)N1CC1 [compound 2637] | 23000 nM | 800 nM | 
36 | CC(C)n1c([N+](=O)[O-])cnc1COP(=O)(N1CC1)N1CC1 [compound 2627] | 32000 nM | 500 nM | 
37 | CCC(OP(=O)(N1CC1)N1CC1)c1ccc([N+](=O)[O-])cc1 (centres unmarked) [compound 2681] | 28000 nM | 300 nM | 
38 | Cc1cccc([N+](=O)[O-])c1C(C)OP(=O)(N1CC1)N1CC1 (centres unmarked) [compound 2615] | 350000 nM | 320000 nM | 
39 | CC(OP(=O)(N1CC1)N1CC1)c1ccc([N+](=O)[O-])c(N2CCNC2(C)O)c1 (centres unmarked) [compound 2723] | 420000 nM | 29000 nM | 
40 | Cc1cc(C(C)OP(=O)(N2CC2)N2CC2)ccc1[N+](=O)[O-] (centres unmarked) [compound 2672] | 180000 nM | 3100 nM | 

Row | Structure (SMILES) | IC50 [3] | IC50 [4] | also measured
41 | CC(OP(=O)(N1CC1)N1CC1)c1ccc([N+](=O)[O-])c(Br)c1 (centres unmarked) [compound 2773] | 16000 nM | 700 nM | 
42 | CC(C)C(OP(=O)(N1CC1)N1CC1)c1ncc([N+](=O)[O-])n1C1CCCC1 (centres unmarked) [compound 2619] | 99000 nM | 2300 nM | 
43 | Cn1c([N+](=O)[O-])cnc1C(CO)OP(=O)(C1CC1)N1CC1 (centres unmarked) [compound 2654] | > 500000 nM | 260000 nM | 
44 | CC(OP(=O)(N1CC1)N1CC1)c1ccc([N+](=O)[O-])c(-n2ccnc2)c1 (centres unmarked) [compound 2703] |  |  | IC50 [5]: 99000 nM; IC50 [6]: 200 nM
45 | O=[N+]([O-])c1ccc(C(OP(=O)(N2CC2)N2CC2)C(F)(F)F)o1 (centres unmarked) [compound 2139] | 300 nM | 4 nM | 
46 | CCC(OP(=O)(N1CC1)N1CC1)c1ncc([N+](=O)[O-])n1C (centres unmarked) [compound 2662] | 22000 nM | 30 nM | 
47 | CC(OP(=O)(N1CC1)N1CC1)c1ccc([N+](=O)[O-])c(N2CCC(O)CC2)c1 (centres unmarked) [compound 2752] | 270000 nM | 5700 nM | 
48 | CC(OP(=O)(N1CC1)N1CC1)c1ccc([N+](=O)[O-])c(-n2ccnc2-c2ccccc2)c1 (centres unmarked) [compound 2766] | 4800 nM | 700 nM | 
49 | CC(OP(=O)(N1CC1)N1CC1)c1ccc([N+](=O)[O-])c(O)c1 (centres unmarked) [compound 2621] | 39000 nM | 300 nM | 
50 | O=[N+]([O-])c1ncn(-c2ccc(C(F)(F)F)cc2)c1COP(=O)(N1CC1)N1CC1 [compound 2656] | 2400 nM | 100 nM | 
51 | Cn1c([N+](=O)[O-])cnc1C(OP(=O)(N1CC1)N1CC1)C(C)(C)C (centres unmarked) [compound 2535] | 500000 nM | 26000 nM | 
52 | CCCCCCCC/C=C/CCCCCCCC(=O)N(C)Cc1nc([N+](=O)[O-])n(C)c1COP(=O)(N1CC1)N1CC1 [compound 2334] | 140 nM | 9 nM | 
53 | CC(OP(=O)(N1CC1)N1CC1)c1ccc([N+](=O)[O-])c(-c2cccc(C#N)c2)c1 (centres unmarked) [compound 2801] | 47000 nM | 2200 nM | 
54 | Cc1cc([N+](=O)[O-])ccc1C(C)OP(=O)(N1CC1)N1CC1 (centres unmarked) [compound 2611] | 14000 nM | 200 nM | 
55 | CC(OP(=O)(N1CC1)N1CC1)c1ccc([N+](=O)[O-])c(-n2cnc([N+](=O)[O-])c2)c1 (centres unmarked) [compound 2728] |  |  | IC50 [1]: 200 nM; IC50 [2]: 22000 nM
56 | CC(C)C(OP(=O)(N1CC1)N1CC1)c1ncc([N+](=O)[O-])n1CCN1CCOCC1 (centres unmarked) [compound 2544] | 45000 nM | 200 nM | 
57 | CC(OP(=O)(N1CC1)N1CC1)c1cc(N2CCN(C)CC2)c([N+](=O)[O-])cc1F (centres unmarked) [compound 2732] | 23000 nM | 200 nM | 
58 | O=[N+]([O-])c1ccc(COP(=O)(N2CC2)N2CC2)c(Br)c1 [compound 2608] | 3100 nM | 300 nM | 
